Measurements as given in ChEMBL document CHEMBL3351764, “Design, synthesis and biological activity of flavonoid derivatives as selective agonists for neuromedin U 2 receptor” (Bioorg Med Chem, 2014).
The source made the active and inactive calls.

Legend:
[1] = biological target: Melanocyte-stimulating hormone receptor (Homo sapiens) (UniProt Q01726); experiment: Agonist activity at human MC1 receptor at 100 uM to 5 mM
[2] = biological target: Adrenocorticotropic hormone receptor (Homo sapiens) (UniProt Q01718); experiment: Agonist activity at human MC2 receptor at 100 uM to 5 mM
Sequence of Adrenocorticotropic hormone receptor (Homo sapiens) (Q01718 whole entry): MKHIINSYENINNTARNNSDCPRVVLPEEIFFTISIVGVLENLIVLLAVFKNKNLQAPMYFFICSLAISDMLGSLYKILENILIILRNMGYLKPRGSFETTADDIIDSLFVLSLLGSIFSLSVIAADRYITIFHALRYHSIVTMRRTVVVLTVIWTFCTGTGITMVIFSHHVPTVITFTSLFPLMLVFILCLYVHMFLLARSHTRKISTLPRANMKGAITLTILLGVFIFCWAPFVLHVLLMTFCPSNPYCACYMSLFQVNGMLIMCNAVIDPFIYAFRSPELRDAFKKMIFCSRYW

[3] = biological target: Melanocortin receptor 3 (Homo sapiens) (UniProt P41968); experiment: Agonist activity at human MC3 receptor at 100 uM to 5 mM
Sequence of Melanocortin receptor 3 (Homo sapiens) (P41968 whole entry): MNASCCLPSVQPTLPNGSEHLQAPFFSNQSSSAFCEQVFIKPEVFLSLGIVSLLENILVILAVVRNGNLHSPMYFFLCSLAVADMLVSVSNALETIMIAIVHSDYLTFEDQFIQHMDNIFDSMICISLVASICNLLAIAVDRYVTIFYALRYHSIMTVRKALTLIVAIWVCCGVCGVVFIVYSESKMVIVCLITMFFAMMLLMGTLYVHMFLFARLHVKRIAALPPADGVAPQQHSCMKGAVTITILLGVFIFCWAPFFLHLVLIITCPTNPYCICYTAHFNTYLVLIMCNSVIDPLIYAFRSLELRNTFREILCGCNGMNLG

[4] = biological target: Melanocyte-stimulating hormone receptor (Mus musculus) (UniProt Q01727); experiment: Agonist activity at mouse MC1 receptor at 100 uM to 5 mM
Sequence of Melanocyte-stimulating hormone receptor (Mus musculus) (Q01727 whole entry, looked up): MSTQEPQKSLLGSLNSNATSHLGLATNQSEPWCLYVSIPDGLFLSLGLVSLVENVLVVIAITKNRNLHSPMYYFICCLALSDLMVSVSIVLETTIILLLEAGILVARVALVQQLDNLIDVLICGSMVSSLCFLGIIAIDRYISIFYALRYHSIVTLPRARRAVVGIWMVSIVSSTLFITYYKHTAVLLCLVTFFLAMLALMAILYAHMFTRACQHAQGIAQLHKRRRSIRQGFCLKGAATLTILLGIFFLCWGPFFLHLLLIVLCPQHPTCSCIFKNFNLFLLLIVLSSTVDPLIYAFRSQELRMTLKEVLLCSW

[5] = biological target: Melanocortin receptor 3 (Mus musculus) (UniProt P33033); experiment: Agonist activity at mouse MC3 receptor at 100 uM to 5 mM
Sequence of Melanocortin receptor 3 (Mus musculus) (P33033 whole entry): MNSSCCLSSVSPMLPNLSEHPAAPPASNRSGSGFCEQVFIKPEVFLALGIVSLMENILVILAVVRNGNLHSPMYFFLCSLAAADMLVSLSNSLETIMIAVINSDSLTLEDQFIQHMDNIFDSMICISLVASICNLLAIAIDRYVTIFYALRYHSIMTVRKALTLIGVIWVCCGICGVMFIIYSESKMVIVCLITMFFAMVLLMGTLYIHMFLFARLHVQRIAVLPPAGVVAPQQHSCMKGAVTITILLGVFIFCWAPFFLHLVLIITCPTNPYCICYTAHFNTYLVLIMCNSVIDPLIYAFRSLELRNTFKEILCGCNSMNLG

[6] = biological target: Melanocortin receptor 5 (Mus musculus) (UniProt P41149); experiment: Agonist activity at mouse MC5 receptor at 100 uM to 5 mM
Sequence of Melanocortin receptor 5 (Mus musculus) (P41149 whole entry): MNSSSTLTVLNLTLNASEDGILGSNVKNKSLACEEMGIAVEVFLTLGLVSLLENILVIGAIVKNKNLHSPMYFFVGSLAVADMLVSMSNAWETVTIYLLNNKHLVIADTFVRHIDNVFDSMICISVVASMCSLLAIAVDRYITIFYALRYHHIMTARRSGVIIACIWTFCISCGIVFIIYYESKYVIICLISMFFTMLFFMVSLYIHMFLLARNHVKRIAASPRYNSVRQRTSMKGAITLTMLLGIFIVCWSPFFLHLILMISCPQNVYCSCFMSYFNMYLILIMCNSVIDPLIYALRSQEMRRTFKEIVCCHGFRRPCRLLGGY

[7] = biological target: T1, Neuromedin-U receptor 1 (Homo sapiens) (UniProt Q9HB89); experiment: Agonist activity at human NMU1 receptor at 100 uM to 5 mM
T1 sequence (whole entry): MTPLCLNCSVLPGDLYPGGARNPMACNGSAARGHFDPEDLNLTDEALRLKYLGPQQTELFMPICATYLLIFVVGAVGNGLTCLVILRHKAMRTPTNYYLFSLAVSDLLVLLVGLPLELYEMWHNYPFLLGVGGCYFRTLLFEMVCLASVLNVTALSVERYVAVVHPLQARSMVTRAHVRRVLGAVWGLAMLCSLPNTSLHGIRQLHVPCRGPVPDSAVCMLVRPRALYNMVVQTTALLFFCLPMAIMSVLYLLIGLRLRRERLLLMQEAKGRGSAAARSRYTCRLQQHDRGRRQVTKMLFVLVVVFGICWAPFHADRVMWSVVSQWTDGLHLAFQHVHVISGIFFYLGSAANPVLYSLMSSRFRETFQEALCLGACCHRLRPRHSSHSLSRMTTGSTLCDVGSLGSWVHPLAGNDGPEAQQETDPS

[8] = biological target: T2, Orexin receptor type 2 (Homo sapiens) (UniProt O43614); experiment: Agonist activity at human orexin 2 receptor at 100 uM to 5 mM
T2 sequence (whole entry): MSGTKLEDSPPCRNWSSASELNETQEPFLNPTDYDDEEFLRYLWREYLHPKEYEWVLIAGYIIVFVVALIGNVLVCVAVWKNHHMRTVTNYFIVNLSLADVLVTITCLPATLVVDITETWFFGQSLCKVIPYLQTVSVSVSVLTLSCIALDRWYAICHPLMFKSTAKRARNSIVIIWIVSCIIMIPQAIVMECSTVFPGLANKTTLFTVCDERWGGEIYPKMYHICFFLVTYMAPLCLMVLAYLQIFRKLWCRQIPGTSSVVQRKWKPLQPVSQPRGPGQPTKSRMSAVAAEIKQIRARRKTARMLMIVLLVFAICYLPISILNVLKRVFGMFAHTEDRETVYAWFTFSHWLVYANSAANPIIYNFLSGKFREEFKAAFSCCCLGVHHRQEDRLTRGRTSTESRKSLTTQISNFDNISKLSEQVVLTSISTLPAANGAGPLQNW

[9] = biological target: Melanin-concentrating hormone receptor 1 (Homo sapiens) (UniProt Q99705); experiment: Agonist activity at human MCH1 receptor at 100 uM to 5 mM
Sequence of Melanin-concentrating hormone receptor 1 (Homo sapiens) (Q99705 whole entry): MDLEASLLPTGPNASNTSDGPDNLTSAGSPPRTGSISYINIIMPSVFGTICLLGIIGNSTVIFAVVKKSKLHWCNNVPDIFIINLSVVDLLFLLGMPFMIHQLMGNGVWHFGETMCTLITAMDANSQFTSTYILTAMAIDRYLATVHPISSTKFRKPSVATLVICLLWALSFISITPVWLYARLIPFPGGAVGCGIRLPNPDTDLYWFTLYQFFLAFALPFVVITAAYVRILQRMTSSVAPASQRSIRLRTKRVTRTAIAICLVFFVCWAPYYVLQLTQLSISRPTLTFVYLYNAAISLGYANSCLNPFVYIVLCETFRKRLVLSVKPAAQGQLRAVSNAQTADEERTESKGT

[10] = biological target: D(1B) dopamine receptor (Homo sapiens) (UniProt P21918); experiment: Agonist activity at human D5 receptor at 100 uM to 5 mM
Sequence of D(1B) dopamine receptor (Homo sapiens) (P21918 whole entry): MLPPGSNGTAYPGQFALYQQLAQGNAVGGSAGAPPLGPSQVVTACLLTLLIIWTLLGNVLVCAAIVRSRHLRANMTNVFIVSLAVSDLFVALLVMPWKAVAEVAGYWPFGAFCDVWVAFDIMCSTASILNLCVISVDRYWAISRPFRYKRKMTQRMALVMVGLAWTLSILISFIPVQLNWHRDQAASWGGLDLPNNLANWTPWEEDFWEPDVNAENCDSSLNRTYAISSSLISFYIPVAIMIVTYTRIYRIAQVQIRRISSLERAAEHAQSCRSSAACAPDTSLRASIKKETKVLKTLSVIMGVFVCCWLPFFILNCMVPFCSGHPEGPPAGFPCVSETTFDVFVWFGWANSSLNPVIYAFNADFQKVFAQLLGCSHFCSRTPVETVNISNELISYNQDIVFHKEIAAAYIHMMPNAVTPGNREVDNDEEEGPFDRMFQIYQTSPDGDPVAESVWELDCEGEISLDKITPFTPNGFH

[11] = biological target: T3, Parathyroid hormone/parathyroid hormone-related peptide receptor (Homo sapiens) (UniProt Q03431); experiment: Agonist activity at human PTH receptor at 100 uM to 5 mM
T3 sequence (whole entry): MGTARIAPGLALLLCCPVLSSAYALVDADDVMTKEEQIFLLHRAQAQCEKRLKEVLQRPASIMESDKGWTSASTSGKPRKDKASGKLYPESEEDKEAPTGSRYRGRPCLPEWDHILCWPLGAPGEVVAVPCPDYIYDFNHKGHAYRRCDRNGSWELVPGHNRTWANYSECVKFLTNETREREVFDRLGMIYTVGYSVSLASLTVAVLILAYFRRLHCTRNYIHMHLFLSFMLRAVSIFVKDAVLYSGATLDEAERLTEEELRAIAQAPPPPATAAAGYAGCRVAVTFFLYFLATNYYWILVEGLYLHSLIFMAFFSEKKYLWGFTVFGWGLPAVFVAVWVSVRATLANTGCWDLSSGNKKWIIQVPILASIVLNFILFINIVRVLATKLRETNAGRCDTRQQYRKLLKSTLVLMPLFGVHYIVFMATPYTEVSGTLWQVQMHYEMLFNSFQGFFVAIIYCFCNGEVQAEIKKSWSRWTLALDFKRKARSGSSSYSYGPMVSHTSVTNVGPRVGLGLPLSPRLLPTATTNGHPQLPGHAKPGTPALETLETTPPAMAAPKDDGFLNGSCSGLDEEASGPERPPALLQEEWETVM

[12] = biological target: T4, C5a anaphylatoxin chemotactic receptor 1 (Homo sapiens) (UniProt P21730); experiment: Agonist activity at human C5a receptor at 100 uM to 5 mM
T4 sequence (whole entry): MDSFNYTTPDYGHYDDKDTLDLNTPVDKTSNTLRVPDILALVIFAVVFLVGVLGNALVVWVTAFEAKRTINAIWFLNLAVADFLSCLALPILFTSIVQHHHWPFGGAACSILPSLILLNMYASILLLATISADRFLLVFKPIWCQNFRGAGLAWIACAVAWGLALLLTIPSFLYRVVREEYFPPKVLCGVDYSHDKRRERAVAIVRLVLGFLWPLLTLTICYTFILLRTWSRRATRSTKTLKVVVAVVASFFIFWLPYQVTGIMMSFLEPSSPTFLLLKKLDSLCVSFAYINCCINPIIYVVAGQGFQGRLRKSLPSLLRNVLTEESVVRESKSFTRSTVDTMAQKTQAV

[13] = biological target: T5, Neuropeptide Y receptor type 5 (Homo sapiens) (UniProt Q15761); experiment: Agonist activity at human NPY5 receptor at 100 uM to 5 mM
T5 sequence (whole entry): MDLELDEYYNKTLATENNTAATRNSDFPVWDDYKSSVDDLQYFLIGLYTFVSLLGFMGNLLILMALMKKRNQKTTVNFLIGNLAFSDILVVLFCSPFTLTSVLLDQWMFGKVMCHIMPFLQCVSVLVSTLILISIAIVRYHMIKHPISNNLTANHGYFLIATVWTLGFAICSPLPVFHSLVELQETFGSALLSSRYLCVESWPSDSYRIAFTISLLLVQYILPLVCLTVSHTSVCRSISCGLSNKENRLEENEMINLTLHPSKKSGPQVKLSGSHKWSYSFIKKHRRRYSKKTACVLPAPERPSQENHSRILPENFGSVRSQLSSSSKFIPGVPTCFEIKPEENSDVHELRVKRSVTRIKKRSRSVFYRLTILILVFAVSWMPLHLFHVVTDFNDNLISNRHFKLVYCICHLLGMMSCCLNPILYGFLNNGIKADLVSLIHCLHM

[14] = biological target: Glucagon receptor (Homo sapiens) (UniProt P47871); experiment: Agonist activity at human Glu receptor at 100 uM to 5 mM
Sequence of Glucagon receptor (Homo sapiens) (P47871 whole entry): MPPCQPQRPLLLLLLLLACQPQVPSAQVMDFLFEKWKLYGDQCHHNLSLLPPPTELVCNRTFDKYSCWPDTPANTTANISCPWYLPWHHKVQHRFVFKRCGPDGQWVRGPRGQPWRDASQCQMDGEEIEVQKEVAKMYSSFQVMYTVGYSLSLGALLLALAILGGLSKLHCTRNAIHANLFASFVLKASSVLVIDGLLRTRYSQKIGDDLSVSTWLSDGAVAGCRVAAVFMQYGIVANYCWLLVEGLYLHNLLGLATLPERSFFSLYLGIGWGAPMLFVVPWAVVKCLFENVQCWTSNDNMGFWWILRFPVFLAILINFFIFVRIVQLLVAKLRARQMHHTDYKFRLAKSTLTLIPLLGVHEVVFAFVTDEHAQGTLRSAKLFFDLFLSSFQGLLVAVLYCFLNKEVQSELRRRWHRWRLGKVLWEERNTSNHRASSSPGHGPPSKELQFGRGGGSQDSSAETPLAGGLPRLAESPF

Measured: Activity

Sequence of Melanocyte-stimulating hormone receptor (Homo sapiens) (Q01726 whole entry, looked up): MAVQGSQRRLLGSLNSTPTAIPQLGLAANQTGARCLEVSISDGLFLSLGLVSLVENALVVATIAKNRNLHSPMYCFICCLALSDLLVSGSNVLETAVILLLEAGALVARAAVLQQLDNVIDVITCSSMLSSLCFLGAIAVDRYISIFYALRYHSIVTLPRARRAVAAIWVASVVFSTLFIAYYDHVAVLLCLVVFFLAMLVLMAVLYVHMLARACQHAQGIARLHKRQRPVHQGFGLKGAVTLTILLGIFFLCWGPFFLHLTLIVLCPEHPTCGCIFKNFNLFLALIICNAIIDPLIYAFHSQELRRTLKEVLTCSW

O=c1c(O)c(-c2cc(Br)ccc2F)oc2ccccc12
inactive: all assays above

COc1ccc(-c2cc(=O)c3ccccc3o2)cc1O
inactive: all assays above

COc1cc(-c2cc(=O)c3ccccc3o2)ccc1O
inactive: all assays above

CCOC(=O)COc1c(-c2cc(Br)ccc2F)oc2ccccc2c1=O
inactive: all assays above

O=c1cc(-c2ccc(Cl)cc2Cl)oc2ccccc12
inactive: all assays above

O=c1c(O)c(-c2ccc(Cl)cc2Cl)oc2ccccc12
inactive: all assays above

O=c1c(O)c(-c2ccccc2F)oc2ccccc12
inactive: all assays above

O=c1c(O)c(-c2ccc(O)cc2)oc2ccccc12
inactive: all assays above

O=c1c(O)c(-c2cccc(Cl)c2)oc2ccccc12
inactive: all assays above

O=c1c(O)c(-c2cccc(Br)c2)oc2ccccc12
inactive: all assays above

COc1ccc(F)c(-c2oc3ccccc3c(=O)c2O)c1
inactive: all assays above
